From patent publication US11999727B2 (Tango Therapeutics, Inc., priority 2020, dated 2024)

Assays:
PRMT5 [1] = biological target: T1, PRMT5 (Homo sapiens, UniProt O14744); assay: PRMT5 biochemical IC50 assay with SAM as cofactor; conditions: PRMT5, SAM as cofactor; read-out: SAM IC50
T1 construct: purchased Viva (custom protein)

PRMT5 [2] = biological target: T1, PRMT5; assay: PRMT5 biochemical IC50 assay with no cofactor; conditions: PRMT5, no cofactor
From the text: Table 1 indicates IC50 values (μM) against PRMT5 for exemplary compounds in the presence of SAM as cofactor, with no cofactor, and with MTA as cofactor, respectively (columns 4-6). […] Ki values can be calculated from the IC50 values as described in the Examples section. As detailed in the Examples section, for the assay performed in the presence of SAM, IC50=Ki×1.5 (Ki=IC50/1.5).

PRMT5 [3] = biological target: T1, PRMT5; assay: PRMT5 biochemical IC50 assay with MTA as cofactor; conditions: PRMT5, MTA as cofactor; read-out: MTA IC50
[4] = system: HAP1 MTAP-intact cell line; assay: SDMA in-cell western assay, HAP1 MTAP-intact; type: cell-based; conditions: Homo sapiens, HAP1, SDMA in-cell western, HAP1 MTAP-intact; read-out: MTAP HAP1 intact IC50
How it was run: (§1)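 Isogenic HAP1 pair: the MTAP-intact line expresses endogenous MTAP, and the deleted line is MTAP-null. Symmetric dimethylarginine was detected by in-cell western and IC50 values derived for each line.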

[5] = system: HAP1 MTAP-deleted cell line; assay: SDMA in-cell western assay, HAP1 MTAP-deleted; type: cell-based; conditions: for IC50: Homo sapiens, HAP1, SDMA in-cell western, HAP1 MTAP-deleted; for MTAP intact/deleted ratio: SDMA in-cell western
How it was run: as §1

[6] = system: HAP1 MTAP-deleted cell line; assay: Viability assay, MTAP-deleted cell line; type: cell-based; conditions: Homo sapiens, read-out: HAP1 MTAP deleted viability
From the text: Table 1 additionally indicates IC50 values in a viability assay for the MTAP-deleted cell line (column 10), indicating the effect of treatment with compound on cell survival.

[7] = read-out: No Cofactor/ rel IC50
[8] = read-out: HAP 1 MTAP deleted IC50
[9] = IC50 ratio HAP1 MTAP-intact / HAP1 MTAP-deleted
[10] = HAP1, viability, HAP1 MTAP-deleted cell line

T1 sequence (O14744 whole entry): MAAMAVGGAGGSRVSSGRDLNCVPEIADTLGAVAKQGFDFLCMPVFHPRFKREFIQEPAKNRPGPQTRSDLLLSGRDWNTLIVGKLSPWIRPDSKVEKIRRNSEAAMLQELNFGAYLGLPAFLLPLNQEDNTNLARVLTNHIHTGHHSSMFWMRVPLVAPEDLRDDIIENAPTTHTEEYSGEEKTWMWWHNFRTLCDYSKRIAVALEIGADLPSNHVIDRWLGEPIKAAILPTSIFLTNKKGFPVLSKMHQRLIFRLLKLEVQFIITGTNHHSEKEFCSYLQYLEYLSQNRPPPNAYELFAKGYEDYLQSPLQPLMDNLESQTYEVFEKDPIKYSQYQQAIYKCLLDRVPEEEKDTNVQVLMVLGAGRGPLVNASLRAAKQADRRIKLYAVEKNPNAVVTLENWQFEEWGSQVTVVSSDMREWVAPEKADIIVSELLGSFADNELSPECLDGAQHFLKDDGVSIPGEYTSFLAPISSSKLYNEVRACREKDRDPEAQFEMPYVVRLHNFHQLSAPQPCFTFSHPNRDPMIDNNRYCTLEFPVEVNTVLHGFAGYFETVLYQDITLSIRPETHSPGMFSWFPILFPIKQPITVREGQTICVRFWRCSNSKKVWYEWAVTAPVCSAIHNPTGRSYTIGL
T1 sequence (Q9BQA1 whole entry partner): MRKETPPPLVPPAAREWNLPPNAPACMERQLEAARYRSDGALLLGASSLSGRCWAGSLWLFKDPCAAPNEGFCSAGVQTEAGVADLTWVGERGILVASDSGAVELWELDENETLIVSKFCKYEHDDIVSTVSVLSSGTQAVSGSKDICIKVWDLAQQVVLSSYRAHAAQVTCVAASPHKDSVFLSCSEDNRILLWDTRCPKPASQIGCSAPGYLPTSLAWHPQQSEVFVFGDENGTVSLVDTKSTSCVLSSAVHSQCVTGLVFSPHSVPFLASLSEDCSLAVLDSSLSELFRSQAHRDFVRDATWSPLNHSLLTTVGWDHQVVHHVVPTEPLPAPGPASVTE

COc1ncc(NC(=O)C(=O)N2C[C@@H](C)CC[C@@H]2c2ccc3sc(CCN(C)C)nc3c2)cc1C(N)=O (racemic) [Compound 1281, 5-[[2-[(2R,5S)-2-[2-[2-(dimethylamino)ethyl]-1,3-benzothiazol-5-yl]-5-methyl-1-piperidyl]-2-oxo-acetyl]amino]-2-methoxy-pyridine-3-carboxamide]
IC50 (PRMT5 [1]): 50 to 500 nM
IC50 (PRMT5 [2]; [7]): 50 to 500 nM
IC50 (PRMT5 [3]): < 50 nM
IC50 [4]: 100 to 1000 nM
IC50 [5, 8]: < 100 nM
MTAP intact/deleted ratio [5, 9]: A (an IC50 ratio greater than or equal to 10 fold)
IC50 [6, 10]: < 1000 nM

CCc1cc(NC(=O)C(=O)N2C[C@@H](C)CC[C@@H]2c2ccc(N3C[C@H]4CN(C)CC[C@H]4C3)cc2)cnc1N (racemic) [Compound 1287, N-(6-amino-5-ethyl-3-pyridyl)-2-oxo-2-[rac-(2R,5S)-5-methyl-2-[4-[rac-(3aR,7aR)-5-methyl-3,3a,4,6,7,7a-hexahydro-1H-pyrrolo[3,4-c]pyridin-2-yl]phenyl]-1-piperidyl]acetamide]
IC50 (PRMT5 [1]): 50 to 500 nM
IC50 (PRMT5 [2]; [7]): < 50 nM
IC50 (PRMT5 [3]): < 50 nM
IC50 [4]: 100 to 1000 nM
IC50 [5, 8]: < 100 nM
MTAP intact/deleted ratio [5, 9]: A (an IC50 ratio greater than or equal to 10 fold)
IC50 [6, 10]: < 1000 nM

CCc1cc(NC(=O)C(=O)N2C[C@@H](C)CC[C@@H]2c2ccc3cn(C4CC(C)(C)N(C)C(C)(C)C4)nc3c2)cnc1N (racemic) [Compound 1295, N-(6-Amino-5-ethyl-3-pyridyl)-2-oxo-2-[rac-(2R,5S)-5-methyl-2-[2-(1,2,2,6,6-pentamethyl-4-piperidyl)indazol-6-yl]-1-piperidyl]acetamide]
IC50 (PRMT5 [1]): < 50 nM
IC50 (PRMT5 [2]; [7]): < 50 nM
IC50 (PRMT5 [3]): < 50 nM
IC50 [4]: < 100 nM
IC50 [5, 8]: < 100 nM
MTAP intact/deleted ratio [5, 9]: A (an IC50 ratio greater than or equal to 10 fold)
IC50 [6, 10]: < 1000 nM

COc1ncc(NC(=O)C(=O)N2C[C@@H](C)CC[C@@H]2c2ccc3cn(C4CCN(C)CC4)nc3c2)cc1C(N)=O (racemic) [Compound 1299, 2-Methoxy-5-[[2-oxo-2-[rac-(2R,5S)-5-methyl-2-[2-(1-methyl-4-piperidyl)indazol-6-yl]-1-piperidyl]acetyl]amino]pyridine-3-carboxamide]
IC50 (PRMT5 [1]): < 50 nM
IC50 (PRMT5 [2]; [7]): < 50 nM
IC50 (PRMT5 [3]): < 50 nM
IC50 [4]: < 100 nM
IC50 [5, 8]: < 100 nM
MTAP intact/deleted ratio [5, 9]: B (an IC50 ratio greater than or equal to 3 fold but lower than 10 fold)
IC50 [6, 10]: < 1000 nM

CCc1cc(NC(=O)C(=O)N2C[C@@H](C)CC[C@@H]2c2ccc(OCCN(C)C)c(Cl)c2)cnc1N (racemic) [Compound 1305, N-(6-Amino-5-ethyl-3-pyridyl)-2-oxo-2-[rac-(2R,5S)-2-[3-chloro-4-[2-(dimethylamino)ethoxy]phenyl]-5-methyl-1-piperidyl]acetamide]
IC50 (PRMT5 [1]): 50 to 500 nM
IC50 (PRMT5 [2]; [7]): < 50 nM
IC50 (PRMT5 [3]): < 50 nM
IC50 [4]: < 100 nM
IC50 [5, 8]: < 100 nM
MTAP intact/deleted ratio [5, 9]: A (an IC50 ratio greater than or equal to 10 fold)
IC50 [6, 10]: < 1000 nM

COc1ncc(NC(=O)C(=O)N2C[C@@H](C)CC[C@@H]2c2ccc3nn([C@H]4CCN(C)C4)cc3c2)cc1C(N)=O (racemic) [Compound 1318, 2-Methoxy-5-[[2-oxo-2-[rac-(2R,5S)-5-methyl-2-[2-[rac-(3S)-1-methylpyrrolidin-3-yl]indazol-5-yl]-1-piperidyl]acetyl]amino]pyridine-3-carboxamide]
IC50 (PRMT5 [1]): 50 to 500 nM
IC50 (PRMT5 [2]; [7]): < 50 nM
IC50 (PRMT5 [3]): < 50 nM
IC50 [4]: 100 to 1000 nM
IC50 [5, 8]: < 100 nM
MTAP intact/deleted ratio [5, 9]: A (an IC50 ratio greater than or equal to 10 fold)
IC50 [6, 10]: < 1000 nM

CCc1cc(NC(=O)C(=O)N2C[C@@H](C)CC[C@@H]2c2ccc(N3CCOC4(CN(C)C4)C3)cc2)cnc1N (racemic) [Compound 1329, rac-N-(6-Amino-5-ethyl-3-pyridyl)-2-[(2R,5S)-5-methyl-2-[4-(2-methyl-5-oxa-2,8-diazaspiro[3.5]nonan-8-yl)phenyl]-1-piperidyl]-2-oxo-acetamide]
IC50 (PRMT5 [1]): 50 to 500 nM
IC50 (PRMT5 [2]; [7]): 50 to 500 nM
IC50 (PRMT5 [3]): 50 to 500 nM
IC50 [4]: > 1000 nM
IC50 [5, 8]: < 100 nM
IC50 [6, 10]: < 1000 nM

CCc1cc(NC(=O)C(=O)N2C[C@@H](C)[C@H](OC(C)C)C[C@@H]2c2ccc3scnc3c2)cnc1N (racemic) [Compound 1343, N-(6-Amino-5-ethyl-3-pyridyl)-2-[(2S,4S,5S)-2-(1,3-benzothiazol-5-yl)-4-isopropoxy-5-methyl-1-piperidyl]-2-oxo-acetamide]
IC50 (PRMT5 [1]): 50 to 500 nM
IC50 (PRMT5 [2]; [7]): 50 to 500 nM
IC50 (PRMT5 [3]): 50 to 500 nM
IC50 [4]: 100 to 1000 nM
IC50 [5, 8]: < 100 nM
MTAP intact/deleted ratio [5, 9]: A (an IC50 ratio greater than or equal to 10 fold)
IC50 [6, 10]: < 1000 nM

C[C@@H]1CC[C@@H](c2ccc3sc(CCN(C)C)nc3c2)N(C(=O)C(=O)Nc2cncc(C(N)=O)c2)C1 (racemic) [Compound 1355, 5-(2-(2-(2-(2-(dimethylamino)ethyl)benzo[d]thiazol-5-yl)-5-methylpiperidin-1-yl)-2-oxoacetamido)nicotinamide]
IC50 (PRMT5 [1]): 50 to 500 nM
IC50 (PRMT5 [2]; [7]): 50 to 500 nM
IC50 (PRMT5 [3]): < 50 nM
IC50 [4]: 100 to 1000 nM
IC50 [5, 8]: < 100 nM
MTAP intact/deleted ratio [5, 9]: A (an IC50 ratio greater than or equal to 10 fold)
IC50 [6, 10]: < 1000 nM

CCc1cc(NC(=O)C(=O)N2CC(C)CCC2c2ccc3sc(C4CCN(C)CC4C)nc3c2)cnc1N (racemic) [Compound 1373, N-(6-amino-5-ethyl-3-pyridyl)-2-oxo-2-[rac-(2R,5S)-5-methyl-2-[2-[rac-(3S,4S)-1,3-dimethyl-4-piperidyl]-1,3-benzothiazol-5-yl]-1-piperidyl]acetamide]
IC50 (PRMT5 [1]): < 50 nM
IC50 (PRMT5 [2]; [7]): < 50 nM
IC50 (PRMT5 [3]): < 50 nM
IC50 [4]: < 100 nM
IC50 [5, 8]: < 100 nM
MTAP intact/deleted ratio [5, 9]: B (an IC50 ratio greater than or equal to 3 fold but lower than 10 fold)
IC50 [6, 10]: < 1000 nM

CCc1cc(NC(=O)C(=O)N2C[C@@H](C)CC[C@@H]2c2ccc(N3CCN(CC)CC3)c(C)c2)cnc1N (racemic) [Compound 1376, N-(6-Amino-5-ethyl-3-pyridyl)-2-oxo-2-[rac-(2R,5S)-2-[4-(4-ethylpiperazin-1-yl)-3-methyl-phenyl]-5-methyl-1-piperidyl]acetamide]
IC50 (PRMT5 [1]): 50 to 500 nM
IC50 (PRMT5 [2]; [7]): < 50 nM
IC50 (PRMT5 [3]): < 50 nM
IC50 [4]: 100 to 1000 nM
IC50 [5, 8]: < 100 nM
MTAP intact/deleted ratio [5, 9]: A (an IC50 ratio greater than or equal to 10 fold)
IC50 [6, 10]: < 1000 nM

CCc1cc(NC(=O)C(=O)N2C[C@@H](C)CC[C@@H]2c2ccc3nn([C@@H]4CCN(C)C4)cc3c2)cnc1N (racemic) [Compound 1398, N-(6-Amino-5-ethyl-3-pyridyl)-2-oxo-2-[rac-(2R,5S)-5-methyl-2-[2-[rac-(3R)-1-methylpyrrolidin-3-yl]indazol-5-yl]-1-piperidyl]acetamide]
IC50 (PRMT5 [1]): 50 to 500 nM
IC50 (PRMT5 [2]; [7]): 50 to 500 nM
IC50 (PRMT5 [3]): < 50 nM
IC50 [4]: < 100 nM
IC50 [5, 8]: < 100 nM
MTAP intact/deleted ratio [5, 9]: A (an IC50 ratio greater than or equal to 10 fold)
IC50 [6, 10]: < 1000 nM

Cc1cc(NC(=O)C(=O)N2C[C@H](C)CC[C@H]2c2ccc3c(c2)CCC(=O)N3)cnc1C (relative stereo) [Compound 632]
IC50 (PRMT5 [1]): 50 to 500 nM
IC50 (PRMT5 [2]; read-out: No Cofactor/rel IC50): < 50 nM
IC50 (PRMT5 [3]): < 50 nM
IC50 [4]: 100 to 1000 nM
IC50 [5, 8]: < 100 nM
MTAP intact/deleted ratio [5, 9]: A (an IC50 ratio greater than or equal to 10 fold)
IC50 ([6]; HAP1, viability IC50, MTAP-deleted cell line): < 1000 nM

CO[C@H]1C[C@H](c2ccc3scnc3c2)N(C(=O)C(=O)Nc2cnc(N)c(C)c2)C[C@H]1C (relative stereo) [Compound 1216]
IC50 (PRMT5 [1]): 50 to 500 nM
IC50 (PRMT5 [2]; read-out: No Cofactor/rel IC50): < 50 nM
IC50 (PRMT5 [3]): < 50 nM
IC50 [4]: < 100 nM
IC50 ([5]; read-out: HAP1 MTAP deleted IC50): < 100 nM
MTAP intact/deleted ratio ([5]; IC50 ratio HAP1 MTAP-intact vs HAP1 MTAP-deleted): B (an IC50 ratio greater than or equal to 3 fold but lower than 10 fold)
IC50 ([6]; HAP1, viability assay, MTAP-deleted cell line): < 1000 nM

CCc1cc(NC(=O)C(=O)N2C[C@@H](C)CC[C@@H]2c2ccc3sc(C(F)(F)CN(C)C)nc3c2)cnc1N (relative stereo) [Compound 1280]
IC50 (PRMT5 [1]): 50 to 500 nM
IC50 (PRMT5 [2]; [7]): < 50 nM
IC50 (PRMT5 [3]): < 50 nM
IC50 [4]: 100 to 1000 nM
IC50 [5, 8]: < 100 nM
MTAP intact/deleted ratio [5, 9]: A (an IC50 ratio greater than or equal to 10 fold)
IC50 [6, 10]: < 1000 nM

CCc1cc(NC(=O)C(=O)N2C[C@@H](C)CC[C@@H]2c2ccc(N3CC[C@@H]4CN(C)C[C@@H]4C3)cc2)cnc1N (relative stereo) [Compound 1349]
IC50 (PRMT5 [1]): 50 to 500 nM
IC50 (PRMT5 [2]; [7]): < 50 nM
IC50 (PRMT5 [3]): < 50 nM
IC50 [4]: 100 to 1000 nM
IC50 [5, 8]: < 100 nM
MTAP intact/deleted ratio [5, 9]: A (an IC50 ratio greater than or equal to 10 fold)
IC50 [6, 10]: < 1000 nM
